The results in this text go back to ChEMBL document CHEMBL5352478, “Novel pyridine-containing histone deacetylase inhibitors strongly arrest proliferation, induce apoptosis and modulate miRNAs in cancer cells” (Eur J Med Chem, 2023).

Assay [1] concerns K562. Nature of the assay: cells. The assay is classed as functional, cell-based. The note with it: Homo sapiens, K562, 72 h.
Assay [2] has as its system K562. Nature of the assay: Potency index, ratio of SAHA IC50 to test compound IC50 for antiproliferative activity against human K562 cell. The assay is classed as functional.
The subject of the next assay is MV4-11. Put plainly: Antiproliferative activity against human MV4-11 cells incubated for 48 hrs. It counts as functional, cell-based. The conditions noted are these: MV4-11, 48 h.
A further assay deals with HL-60. Nature of the assay: Antiproliferative activity against human HL-60 cells incubated for 48 hrs. The assay is classed as functional, cell-based. The note with it: HL-60, 48 h.
A short description of assay [3]: Antiproliferative activity against human IMS-M2 cells incubated for 48 hrs. The note with it: IMS-M2, 48 h. It counts as functional, cell-based.
The next assay deals with KARPAS-299. Nature of the assay: Antiproliferative activity against human KARPAS-299 cells incubated for 48 hrs. It counts as functional, cell-based. The conditions noted are these: KARPAS-299, 48 h.
The target in a further assay is Histone deacetylase 3 (Homo sapiens, UniProt O15379).
In assay [4] the test system is U-937. Put plainly: Induction of cell cycle arrest in human U-937 cells assessed as accumulation of cells in pre-G1 phase at 5 uM for 24 hrs by PI staining based flow cytometric analysis. It counts as functional.
The target of assay [5] is T1, Histone deacetylase 9 (Homo sapiens, UniProt Q9UKV0).
Another assay relates to Kasumi 1. Put plainly: Antiproliferative activity against human Kasumi 1 cells incubated for 48 hrs. The assay is classed as functional, cell-based. The conditions noted are these: Kasumi 1, 48 h.
The test system of the next assay is OCI-AML2. Put plainly: Antiproliferative activity against human OCI-AML2 cells incubated for 48 hrs. The assay is classed as functional, cell-based. The note with it: OCI-AML2, 48 h.
In assay [6] the test system is U-937. Nature of the assay: Antiproliferative activity against human U-937 cells incubated for 48 hrs. The assay is classed as functional, cell-based. The note with it: U-937, 48 h.
In another assay the test system is HCT-116. Put plainly: cells. The conditions noted are these: Homo sapiens, HCT-116, 72 h. It counts as functional, cell-based.
The test system of assay [7] is U-937. Nature of the assay: Induction of cell cycle arrest in human U-937 cells assessed as accumulation of cells in pre-G1 phase at 1 uM for 48 hrs by PI staining based flow cytometric analysis. It counts as functional.
In assay [8] the target is T2, Histone deacetylase 8 (Homo sapiens, UniProt Q9BY41).
T2 sequence (Q9BY41 whole entry): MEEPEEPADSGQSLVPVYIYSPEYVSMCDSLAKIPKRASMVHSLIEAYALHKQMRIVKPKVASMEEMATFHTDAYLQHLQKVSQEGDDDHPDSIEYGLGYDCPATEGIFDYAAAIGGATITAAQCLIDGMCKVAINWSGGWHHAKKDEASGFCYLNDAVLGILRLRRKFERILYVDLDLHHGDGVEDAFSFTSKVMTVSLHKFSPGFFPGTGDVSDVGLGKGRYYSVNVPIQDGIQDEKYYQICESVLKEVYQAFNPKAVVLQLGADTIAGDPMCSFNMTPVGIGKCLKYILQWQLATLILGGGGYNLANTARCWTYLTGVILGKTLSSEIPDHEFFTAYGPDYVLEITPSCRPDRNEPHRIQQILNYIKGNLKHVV

Assay [9] concerns U-937. Put plainly: Induction of cell cycle arrest in human U-937 cells assessed as accumulation of cells in G1 phase at 1 to 5 uM for 48 hrs by PI staining based flow cytometric analysis. The note with it: dose 1-5 µM. It counts as functional.
Another assay deals with Histone deacetylase 2 (Homo sapiens, UniProt Q92769).
Another assay addresses Histone deacetylase 5 (Homo sapiens, UniProt Q9UQL6).
In assay [10] the target is T3, Polyamine deacetylase HDAC10 (Homo sapiens, UniProt Q969S8).
T3 sequence (Q969S8 whole entry): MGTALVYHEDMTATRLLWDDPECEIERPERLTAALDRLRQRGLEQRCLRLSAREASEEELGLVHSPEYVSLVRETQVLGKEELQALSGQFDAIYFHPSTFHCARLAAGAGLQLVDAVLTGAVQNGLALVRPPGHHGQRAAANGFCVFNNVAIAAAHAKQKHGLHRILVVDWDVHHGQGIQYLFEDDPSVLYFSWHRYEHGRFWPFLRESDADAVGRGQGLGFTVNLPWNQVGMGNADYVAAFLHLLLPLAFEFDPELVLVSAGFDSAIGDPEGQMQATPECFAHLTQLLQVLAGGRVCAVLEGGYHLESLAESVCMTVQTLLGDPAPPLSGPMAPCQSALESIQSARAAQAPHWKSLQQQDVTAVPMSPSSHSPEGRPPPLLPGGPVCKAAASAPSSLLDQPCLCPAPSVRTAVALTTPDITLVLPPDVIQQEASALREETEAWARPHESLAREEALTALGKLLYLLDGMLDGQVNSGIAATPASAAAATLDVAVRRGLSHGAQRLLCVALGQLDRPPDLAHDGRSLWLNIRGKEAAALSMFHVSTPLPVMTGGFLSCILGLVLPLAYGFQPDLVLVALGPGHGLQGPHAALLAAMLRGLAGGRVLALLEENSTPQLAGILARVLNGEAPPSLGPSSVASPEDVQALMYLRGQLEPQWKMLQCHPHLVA

Assay [11] has as its target T4, Histone deacetylase 7 (Homo sapiens, UniProt Q8WUI4).
T4 sequence (Q8WUI4 whole entry): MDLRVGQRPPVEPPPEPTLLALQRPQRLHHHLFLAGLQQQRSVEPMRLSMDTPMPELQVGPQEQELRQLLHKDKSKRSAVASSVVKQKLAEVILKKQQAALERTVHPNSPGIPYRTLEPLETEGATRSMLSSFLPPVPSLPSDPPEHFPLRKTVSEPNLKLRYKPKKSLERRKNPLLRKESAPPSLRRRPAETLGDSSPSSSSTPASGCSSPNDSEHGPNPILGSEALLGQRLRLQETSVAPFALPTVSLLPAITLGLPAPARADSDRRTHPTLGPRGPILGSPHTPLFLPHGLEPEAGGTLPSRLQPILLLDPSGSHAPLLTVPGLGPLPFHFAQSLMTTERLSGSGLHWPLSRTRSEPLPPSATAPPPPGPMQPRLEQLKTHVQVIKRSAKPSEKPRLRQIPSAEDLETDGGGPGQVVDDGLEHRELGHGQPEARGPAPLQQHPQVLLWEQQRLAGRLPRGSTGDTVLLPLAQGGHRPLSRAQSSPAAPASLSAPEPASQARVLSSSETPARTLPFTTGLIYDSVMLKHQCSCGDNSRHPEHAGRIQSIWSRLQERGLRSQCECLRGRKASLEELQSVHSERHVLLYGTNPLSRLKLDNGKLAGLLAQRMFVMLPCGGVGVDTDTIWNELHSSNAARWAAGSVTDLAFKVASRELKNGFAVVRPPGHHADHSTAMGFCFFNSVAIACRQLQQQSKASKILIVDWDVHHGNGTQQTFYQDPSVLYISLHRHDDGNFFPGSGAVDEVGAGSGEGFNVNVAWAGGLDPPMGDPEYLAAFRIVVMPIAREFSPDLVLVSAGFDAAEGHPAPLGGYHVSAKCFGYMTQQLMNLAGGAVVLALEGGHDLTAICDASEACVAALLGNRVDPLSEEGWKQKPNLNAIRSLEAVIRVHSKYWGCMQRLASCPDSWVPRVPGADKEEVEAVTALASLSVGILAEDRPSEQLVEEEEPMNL

The next assay relates to A549. Put plainly: cells. The assay is classed as functional, cell-based. The conditions noted are these: Homo sapiens, A549, 72 h.
Another assay relates to NB-4. Put plainly: Antiproliferative activity against human NB4 cells incubated for 48 hrs. The assay is classed as functional, cell-based. The note with it: NB-4, 48 h.
The target in another assay is Histone deacetylase 1 (Homo sapiens, UniProt Q13547).
A further assay deals with OCI-AML-3. Put plainly: Antiproliferative activity against human OCI-AML-3 cells incubated for 48 hrs. The conditions noted are these: OCI-AML-3, 48 h. The assay is classed as functional, cell-based.
Assay [12] concerns the target T5, Histone deacetylase 11 (Homo sapiens, UniProt Q96DB2).
T5 sequence (Q96DB2 whole entry): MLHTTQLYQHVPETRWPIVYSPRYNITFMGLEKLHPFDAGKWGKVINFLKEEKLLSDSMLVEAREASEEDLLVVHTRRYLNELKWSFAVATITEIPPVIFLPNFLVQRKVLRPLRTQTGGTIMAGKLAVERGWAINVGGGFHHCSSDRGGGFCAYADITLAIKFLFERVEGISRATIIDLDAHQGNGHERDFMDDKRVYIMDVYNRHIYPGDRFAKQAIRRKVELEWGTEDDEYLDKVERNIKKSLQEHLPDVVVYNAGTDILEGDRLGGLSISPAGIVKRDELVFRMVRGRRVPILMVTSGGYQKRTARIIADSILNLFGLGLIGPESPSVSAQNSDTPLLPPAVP

The next assay deals with Histone deacetylase 4 (Homo sapiens, UniProt P56524).
Assay [13] has as its target T4, Histone deacetylase 7. This is another data set of the same source.
Assay [14] concerns the target T1, Histone deacetylase 9. The source holds these as a separate data set.
The target of assay [15] is T2, Histone deacetylase 8. The source holds these as a separate data set.
Assay [16] has as its system U-937. Put plainly: Induction of cell cycle arrest in human U-937 cells assessed as accumulation of cells in pre-G1 phase at 5 uM for 48 hrs by PI staining based flow cytometric analysis. The assay is classed as functional. The note with it: 48 h, 5 µM.
The subject of assay [17] is U-937. Put plainly: Induction of cell cycle arrest in human U-937 cells assessed as cell death at 5 uM for 48 hrs by PI staining based flow cytometric analysis. It counts as functional.
The target of assay [18] is T5, Histone deacetylase 11. The source holds these as a separate data set.

“And” between values parts separate entries of the source, which are not always exact repeats. Equal entries are not always repeated.

Chain of Histone deacetylase 5 (Q9UQL6 whole entry): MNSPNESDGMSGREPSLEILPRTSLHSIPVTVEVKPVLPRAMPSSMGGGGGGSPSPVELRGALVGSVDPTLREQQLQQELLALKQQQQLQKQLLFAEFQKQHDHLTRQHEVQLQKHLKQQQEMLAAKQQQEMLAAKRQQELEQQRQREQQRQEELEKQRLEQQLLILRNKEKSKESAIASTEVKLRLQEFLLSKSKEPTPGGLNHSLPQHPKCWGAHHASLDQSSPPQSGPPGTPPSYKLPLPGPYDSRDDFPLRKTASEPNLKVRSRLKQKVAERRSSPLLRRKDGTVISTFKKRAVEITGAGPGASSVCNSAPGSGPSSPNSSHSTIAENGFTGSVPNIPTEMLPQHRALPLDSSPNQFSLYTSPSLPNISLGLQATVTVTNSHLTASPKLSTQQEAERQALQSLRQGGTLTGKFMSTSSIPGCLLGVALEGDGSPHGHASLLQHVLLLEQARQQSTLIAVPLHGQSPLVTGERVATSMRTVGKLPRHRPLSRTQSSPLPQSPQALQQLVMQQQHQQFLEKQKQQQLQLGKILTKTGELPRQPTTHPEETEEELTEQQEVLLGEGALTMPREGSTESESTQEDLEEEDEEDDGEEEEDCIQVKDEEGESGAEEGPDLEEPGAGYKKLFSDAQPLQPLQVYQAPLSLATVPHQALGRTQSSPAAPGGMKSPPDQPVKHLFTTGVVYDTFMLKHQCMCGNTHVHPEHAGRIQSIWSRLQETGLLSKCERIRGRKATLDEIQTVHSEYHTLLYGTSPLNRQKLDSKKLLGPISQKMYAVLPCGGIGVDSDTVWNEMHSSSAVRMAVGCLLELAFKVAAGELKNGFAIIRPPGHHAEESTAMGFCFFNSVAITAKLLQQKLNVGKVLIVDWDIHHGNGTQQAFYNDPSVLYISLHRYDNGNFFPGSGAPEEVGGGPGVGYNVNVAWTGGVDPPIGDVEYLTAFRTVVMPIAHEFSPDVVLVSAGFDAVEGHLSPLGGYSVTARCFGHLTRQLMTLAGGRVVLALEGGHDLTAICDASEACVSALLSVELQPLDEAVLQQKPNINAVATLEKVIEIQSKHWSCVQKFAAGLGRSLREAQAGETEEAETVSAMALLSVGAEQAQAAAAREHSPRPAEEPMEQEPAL
Chain of Histone deacetylase 3 (O15379 whole entry): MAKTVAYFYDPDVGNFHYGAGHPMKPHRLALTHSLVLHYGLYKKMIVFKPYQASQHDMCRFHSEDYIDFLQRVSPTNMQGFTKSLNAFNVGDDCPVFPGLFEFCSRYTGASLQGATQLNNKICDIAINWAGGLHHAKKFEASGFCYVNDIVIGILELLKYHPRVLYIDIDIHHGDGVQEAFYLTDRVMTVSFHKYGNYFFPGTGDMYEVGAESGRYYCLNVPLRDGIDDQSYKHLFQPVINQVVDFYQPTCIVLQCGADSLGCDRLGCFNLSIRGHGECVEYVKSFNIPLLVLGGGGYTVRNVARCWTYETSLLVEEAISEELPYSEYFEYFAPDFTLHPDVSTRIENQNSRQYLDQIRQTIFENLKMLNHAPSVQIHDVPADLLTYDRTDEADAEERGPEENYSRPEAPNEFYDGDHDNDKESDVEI
Chain of Histone deacetylase 1 (Q13547 whole entry): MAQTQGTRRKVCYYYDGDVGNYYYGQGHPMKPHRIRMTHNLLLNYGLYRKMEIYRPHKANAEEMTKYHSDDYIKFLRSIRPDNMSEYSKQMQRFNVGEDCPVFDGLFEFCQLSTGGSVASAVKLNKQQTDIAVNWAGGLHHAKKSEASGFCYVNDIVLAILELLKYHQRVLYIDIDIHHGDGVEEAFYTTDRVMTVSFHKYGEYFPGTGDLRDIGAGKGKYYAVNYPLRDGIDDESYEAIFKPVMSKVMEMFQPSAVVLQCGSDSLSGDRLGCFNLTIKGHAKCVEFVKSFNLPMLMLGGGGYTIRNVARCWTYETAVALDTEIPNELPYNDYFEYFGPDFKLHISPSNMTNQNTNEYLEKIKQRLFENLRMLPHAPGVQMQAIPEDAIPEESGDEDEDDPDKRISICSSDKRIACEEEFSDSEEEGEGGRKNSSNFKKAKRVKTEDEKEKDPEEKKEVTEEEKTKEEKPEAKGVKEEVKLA
Chain of Histone deacetylase 2 (Q92769 whole entry): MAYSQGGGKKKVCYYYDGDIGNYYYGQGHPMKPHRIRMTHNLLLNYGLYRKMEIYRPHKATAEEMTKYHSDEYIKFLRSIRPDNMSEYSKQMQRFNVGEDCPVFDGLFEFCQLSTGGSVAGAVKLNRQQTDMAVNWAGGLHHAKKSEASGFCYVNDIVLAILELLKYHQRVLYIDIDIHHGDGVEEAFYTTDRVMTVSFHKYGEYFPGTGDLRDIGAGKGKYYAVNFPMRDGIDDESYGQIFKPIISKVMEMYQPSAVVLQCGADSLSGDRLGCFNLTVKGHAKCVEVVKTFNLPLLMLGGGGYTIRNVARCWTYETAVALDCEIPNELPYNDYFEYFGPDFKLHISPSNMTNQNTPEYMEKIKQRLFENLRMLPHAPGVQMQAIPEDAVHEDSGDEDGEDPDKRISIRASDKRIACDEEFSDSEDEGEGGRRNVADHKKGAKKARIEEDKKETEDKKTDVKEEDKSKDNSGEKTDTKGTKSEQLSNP
T1 sequence (Q9UKV0 whole entry): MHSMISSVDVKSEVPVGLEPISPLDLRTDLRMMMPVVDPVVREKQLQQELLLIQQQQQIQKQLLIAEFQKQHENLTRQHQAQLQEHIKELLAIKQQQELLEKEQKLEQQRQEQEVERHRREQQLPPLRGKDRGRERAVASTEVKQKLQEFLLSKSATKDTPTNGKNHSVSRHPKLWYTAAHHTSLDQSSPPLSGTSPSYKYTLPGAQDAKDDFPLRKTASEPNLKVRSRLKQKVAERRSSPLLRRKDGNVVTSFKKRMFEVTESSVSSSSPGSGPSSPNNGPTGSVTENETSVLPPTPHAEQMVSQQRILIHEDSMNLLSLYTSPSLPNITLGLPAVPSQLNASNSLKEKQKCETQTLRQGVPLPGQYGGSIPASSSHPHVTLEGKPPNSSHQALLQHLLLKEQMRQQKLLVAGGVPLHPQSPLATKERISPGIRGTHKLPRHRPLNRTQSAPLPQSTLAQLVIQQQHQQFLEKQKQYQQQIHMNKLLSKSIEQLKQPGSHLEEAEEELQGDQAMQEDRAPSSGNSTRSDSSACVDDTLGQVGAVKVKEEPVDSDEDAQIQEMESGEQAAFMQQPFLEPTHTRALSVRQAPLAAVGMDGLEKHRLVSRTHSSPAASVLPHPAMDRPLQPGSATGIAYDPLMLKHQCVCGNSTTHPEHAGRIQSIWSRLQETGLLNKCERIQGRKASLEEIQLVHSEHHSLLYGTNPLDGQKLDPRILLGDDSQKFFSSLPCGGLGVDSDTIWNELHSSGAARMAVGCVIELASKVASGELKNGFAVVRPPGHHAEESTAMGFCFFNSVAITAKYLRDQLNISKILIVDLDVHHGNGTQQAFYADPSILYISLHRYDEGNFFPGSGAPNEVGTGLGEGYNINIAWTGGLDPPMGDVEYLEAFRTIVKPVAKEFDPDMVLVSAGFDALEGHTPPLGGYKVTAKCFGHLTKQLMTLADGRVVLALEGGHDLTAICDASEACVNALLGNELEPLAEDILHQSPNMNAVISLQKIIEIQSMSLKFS
Chain of Histone deacetylase 4 (P56524 whole entry): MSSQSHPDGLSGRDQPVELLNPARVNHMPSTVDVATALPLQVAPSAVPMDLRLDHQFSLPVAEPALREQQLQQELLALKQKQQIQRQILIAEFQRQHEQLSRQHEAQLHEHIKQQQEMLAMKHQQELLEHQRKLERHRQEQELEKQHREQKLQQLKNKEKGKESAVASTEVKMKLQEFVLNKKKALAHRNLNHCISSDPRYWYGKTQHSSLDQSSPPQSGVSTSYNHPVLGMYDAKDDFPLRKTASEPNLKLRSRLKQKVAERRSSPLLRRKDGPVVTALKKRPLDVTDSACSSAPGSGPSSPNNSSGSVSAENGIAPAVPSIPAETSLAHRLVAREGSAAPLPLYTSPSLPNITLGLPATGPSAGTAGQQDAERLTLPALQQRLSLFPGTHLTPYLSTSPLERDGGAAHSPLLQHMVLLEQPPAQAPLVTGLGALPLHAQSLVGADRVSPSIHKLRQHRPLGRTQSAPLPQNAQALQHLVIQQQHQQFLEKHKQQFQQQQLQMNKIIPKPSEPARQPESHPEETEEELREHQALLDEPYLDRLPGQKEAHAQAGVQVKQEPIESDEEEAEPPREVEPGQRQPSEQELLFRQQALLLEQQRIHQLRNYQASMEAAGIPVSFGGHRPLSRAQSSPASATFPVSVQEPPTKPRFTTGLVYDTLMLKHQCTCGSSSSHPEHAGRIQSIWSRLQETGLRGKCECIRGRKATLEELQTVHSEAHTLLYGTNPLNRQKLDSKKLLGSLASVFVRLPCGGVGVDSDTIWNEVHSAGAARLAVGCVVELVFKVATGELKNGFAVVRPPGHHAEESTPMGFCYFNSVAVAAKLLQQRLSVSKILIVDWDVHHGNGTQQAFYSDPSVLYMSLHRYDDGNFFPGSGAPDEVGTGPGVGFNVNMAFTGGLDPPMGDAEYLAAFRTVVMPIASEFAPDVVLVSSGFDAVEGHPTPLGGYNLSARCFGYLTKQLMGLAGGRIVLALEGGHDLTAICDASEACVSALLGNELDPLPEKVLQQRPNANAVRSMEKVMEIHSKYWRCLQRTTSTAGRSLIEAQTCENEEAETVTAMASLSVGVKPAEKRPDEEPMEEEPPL

For `O=C(/C=C/c1ccc(NC(=O)Cc2cccc3ccccc23)cn1)NO`, the IC50 amounted to 50 nM with K562 [1]; 59 nM in the assay with MV4-11; 276 nM with HL-60; 198 nM in [3]; 400 nM in the assay on KARPAS-299; 39 nM on Histone deacetylase 3. Also, the IC50 against Histone deacetylase 9 [5] is 2790 nM; in the assay on Kasumi 1 it was 66 nM; in the assay on OCI-AML2 it was 379 nM; in the assay on U-937 [6] it was 258 nM; in the assay with HCT-116 it was 70 nM; against Histone deacetylase 8 [8], 47 nM. In addition, the 50% inhibitory concentration (IC50) against Histone deacetylase 2 turned out to be 156 nM; on Histone deacetylase 5 (read-out: IC50), 1350 nM; in [10], 71 nM; on Histone deacetylase 7 [11] it was 2060 nM; with A549, 320 nM; in the assay on NB-4, 84 nM. Also, the IC50 at Histone deacetylase 1 is 98 nM; with OCI-AML-3 it was 529 nM; against Histone deacetylase 11 [12], 3980 nM. The “Ratio IC50” value in the assay on K562 [2] is 10. Further, the Activity in the assay with U-937 [4] was 10%; in the assay on U-937 [7], 40%; in the assay on U-937 [9], 70%.

`Nc1ccccc1NC(=O)c1ccc(NC(=O)C(Cc2ccccc2)c2ccccc2)cn1` (stereo not given): the IC50 in the assay with K562 [1] is 320 nM; at Histone deacetylase 3, 515 nM; on Histone deacetylase 4, “Not Active”; in the assay with HCT-116, 320 nM; at Histone deacetylase 2 it was 431 nM; against Histone deacetylase 5 it was “Not Active”. The IC50 result is “Not Active” at Histone deacetylase 7 [13]; 320 nM in [10]; 1510 nM with A549; “Not Active” on Histone deacetylase 9 [14]; “Not Active” against Histone deacetylase 8 [15]; 353 nM on Histone deacetylase 1. This compound also came in with a concentration for half-maximal inhibition (IC50) on Histone deacetylase 11 [12] of 85400 nM. In addition, the Activity in the assay with U-937 [4] was found to be 10%; with U-937 [9] it was 70%.

Turning to `Nc1ccccc1NC(=O)c1ccc(NC(=O)Cc2ccc3ccccc3c2)cn1`, the IC50 in the assay on K562 [1] is 370 nM; in the assay with MV4-11, 170 nM; with HL-60, 218 nM; in [3], 155 nM; in the assay with KARPAS-299, 9270 nM; against Histone deacetylase 3, 440 nM. Moreover, the IC50 entry against Histone deacetylase 4 is “Not Active”; in the assay with Kasumi 1 it was 257 nM; with OCI-AML2, 1500 nM; in the assay with U-937 [6], 822 nM; in the assay on HCT-116, 430 nM; at Histone deacetylase 2, 227 nM. Also, the IC50 result on Histone deacetylase 5 was “Not Active”; on Histone deacetylase 7 [13], “Not Active”; in assay [10], 446 nM; with A549, 1280 nM; with NB-4, 210 nM; on Histone deacetylase 11 [18] it was “Not Active”. The IC50 result was “Not Active” on Histone deacetylase 9 [14], “Not Active” against Histone deacetylase 8 [15], 189 nM at Histone deacetylase 1 and 4140 nM with OCI-AML-3. In addition, the Activity in the assay on U-937 [16] was 50% and 30%; in the assay on U-937 [17], 100%; in the assay with U-937 [4] it was 10%; in the assay on U-937 [9], 70%.

For the compound `Nc1ccccc1NC(=O)c1ccc(CNc2nccc(-c3cccnc3)n2)cc1` [MOCETINOSTAT], the IC50 in the assay with MV4-11 turned out to be 190 nM; in the assay with HL-60, 418 nM; in assay [3], 657 nM; in the assay on KARPAS-299 it was 4150 nM; with Kasumi 1, 151 nM; in the assay on OCI-AML2, 1560 nM. Further, the IC50 was 1370 nM with U-937 [6], 406 nM with NB-4 and 1790 nM in the assay on OCI-AML-3.
